Measured values: publication PMC5971061, “Differential Effects of Linkers on the Activity of Amphiphilic Tobramycin Antifungals” (Molecules : A Journal of Synthetic Chemistry and Natural …, 2018)
Values after ≈ are worked out from the molar mass of the structure shown. One block for each compound: values may come before it.

Columns and labels:
[1] = Hemolytic activity assay; type: cell-based, murine; settings: mouse, murine red blood cells (mRBCs), mRBCs, 37 °C 1 h, ± SDEV
Protocol: (§1) The hemolytic activity of compounds 3, 4, 7a, 7b, and 9 as well as the parent compound TOB was determined by using previously described methods with minor modifications. Murine whole blood (1 mL) was suspended in 4 mL of PBS and centrifuged at 1000 rpm for 10 min at room temperature to obtain murine red blood cells (mRBCs). The mRBCs were washed four times in PBS and resuspended in the same buffer to a final concentration of 10^7 erythrocytes/mL. Two-fold serial dilutions of compounds 3, 4, 7a, 7b, and 9 were prepared using 100 μL of PBS buffer in Eppendorf tubes followed by the addition of 100 μL of mRBC suspension that made the final concentration of compounds and mRBCs to be 0.48–62.5 μg/mL and 5 × 10^6 erythrocytes/mL, respectively. The tubes were incubated at 37 °C for 1 h. The tubes with PBS buffer (200 μL) and Triton X-100® (1% v/v, 2 μL) served as the negative (blank) and positive controls, respectively. The percentage of hemolysis was calculated using the following equation: % hemolysis = [(absorbance of sample) − (absorbance of blank)] × 100/(absorbance of positive control).

[2] = test system: murine red blood cells (mRBCs); experiment: Hemolytic activity assay; type: cell-based; settings: 62.5 μg/mL, mRBCs, 37 °C 1 h, ± SDEV
Protocol: as §1

[3] = test system: C. albicans ATCC MYA-2310(S) (strain E); experiment: MIC, broth microdilution (CLSI M27-A3), yeast strain E; type: cell-based; settings: Candida albicans; MIC-0, strain E, 35 °C 48 h
Protocol: (§2) The final concentrations of compounds 3, 4, 7a, 7b, 9, and 16, as well as that of TOB tested in this study ranged from 0.24–62.5 μg/mL. CAS was used as a positive control and the final concentrations tested for CAS ranged from 0.03–31.3 μg/mL. Briefly, overnight yeast cultures were grown in yeast peptone dextrose (YPD) broth and the cell density was adjusted to an OD600 of 0.12 (~1 × 10^6 CFU/mL) by using a spectrophotometer. Yeast cell suspensions were further diluted to achieve 1–5 × 10^3 CFU/mL in RPMI 1640 medium, and 100 μL of these yeast cells was added to 96-well microtiter plates containing RPMI 1640 medium and titrated compounds. Each test was performed in triplicate. The plates were incubated at 35 °C for 48 h.

[4] = test system: Cryptococcus neoformans clinical isolate CN3; experiment: MIC, broth microdilution (CLSI M27-A3), CN3; type: cell-based; settings: MIC-0, CN3, 35 °C 48 h
Protocol: as §2

[5] = test system: C. neoformans clinical isolates CN1-3; experiment: MIC across C. neoformans clinical isolates CN1-3; type: cell-based, Cryptococcus neoformans
Protocol: as §2

[6] = test system: Candida parapsilosis clinical isolate CP2; experiment: MIC, broth microdilution (CLSI M27-A3), CP2; type: cell-based; settings: Lodderomyces parapsilosis; MIC-0, CP2, 35 °C 48 h
Protocol: as §2

[7] = test system: Aspergillus flavus ATCC MYA-3631 (strain K); experiment: MIC, filamentous fungi (CLSI M38-A2), strain K; type: cell-based; settings: Aspergillus flavus, 72 h, MIC-0, strain K, 35 °C 72 h; read-out: MIC
Protocol: (§3) The spores were harvested from sporulating cultures growing on potato dextrose agar (PDA) by filtration through sterile glass wool and enumerated by using a hemocytometer (Hausser Scientific, Horsham, PA, USA) to obtain the desired inoculum size. Two-fold serial dilutions of compounds 3, 4, 7a, 7b, 9, and 16, as well as CAS and TOB were made in sterile 96-well microtiter plates to obtain the final concentration range of 0.24–62.5 μg/mL for TOB and TOB derivatives as well as 0.03–31.3 μg/mL for CAS in the RPMI 1640 medium. The spore suspensions were added to the wells to afford a final concentration of 5 × 10^5 spores/mL. The plates were incubated at 35 °C for 72 h. […] Each test was performed in triplicate.

[8] = test system: C. albicans ATCC MYA-2876(S) (strain C); experiment: MIC, broth microdilution (CLSI M27-A3), yeast strain C; type: cell-based; settings: Candida albicans; MIC-0, strain C, 35 °C 48 h
Protocol: as §2

[9] = test system: Aspergillus nidulans ATCC 38163 (strain L); experiment: MIC, filamentous fungi (CLSI M38-A2), strain L; type: cell-based; settings: Aspergillus nidulans, ATCC38163, 72 h, MIC-0, strain L, 35 °C 72 h; read-out: MIC
Protocol: as §3

[10] = test system: Candida glabrata ATCC 2001 (strain H); experiment: MIC, broth microdilution (CLSI M27-A3), yeast strain H; type: cell-based; settings: Nakaseomyces glabratus, ATCC2001; MIC-0, strain H, 35 °C 48 h
Protocol: as §2

[11] = test system: Candida glabrata clinical isolate CG2; experiment: MIC, broth microdilution (CLSI M27-A3), CG2; type: cell-based; settings: Nakaseomyces glabratus; MIC-0, CG2, 35 °C 48 h
Protocol: as §2

[12] = test system: Cryptococcus neoformans clinical isolate CN1; experiment: MIC, broth microdilution (CLSI M27-A3), CN1; type: cell-based; settings: MIC-0, CN1, 35 °C 48 h
Protocol: as §2

[13] = test system: Cryptococcus neoformans clinical isolate CN2; experiment: MIC, broth microdilution (CLSI M27-A3), CN2; type: cell-based; settings: MIC-0, CN2, 35 °C 48 h
Protocol: as §2

[14] = test system: Candida krusei ATCC 6258 (strain I); experiment: MIC, broth microdilution (CLSI M27-A3), yeast strain I; type: cell-based; settings: Pichia kudriavzevii, ATCC6258; MIC-0, strain I, 35 °C 48 h
Protocol: as §2

[15] = test system: C. albicans ATCC 64124 (strain B); experiment: MIC, broth microdilution (CLSI M27-A3), yeast strain B; type: cell-based; settings: Candida albicans, ATCC64124; MIC-0, strain B, 35 °C 48 h
Protocol: as §2

[16] = test system: C. albicans ATCC MYA-1003(R) (strain G); experiment: MIC, broth microdilution (CLSI M27-A3), yeast strain G; type: cell-based; settings: Candida albicans; MIC-0, strain G, 35 °C 48 h
Protocol: as §2

[17] = test system: Candida glabrata clinical isolate CG1; experiment: MIC, broth microdilution (CLSI M27-A3), CG1; type: cell-based; settings: Nakaseomyces glabratus; MIC-0, CG1, 35 °C 48 h
Protocol: as §2

[18] = test system: Candida parapsilosis clinical isolate CP3; experiment: MIC, broth microdilution (CLSI M27-A3), CP3; type: cell-based; settings: MIC-0, CP3, 35 °C 48 h
Protocol: as §2

[19] = test system: Candida glabrata clinical isolate CG3; experiment: MIC, broth microdilution (CLSI M27-A3), CG3; type: cell-based; settings: Nakaseomyces glabratus; MIC-0, CG3, 35 °C 48 h
Protocol: as §2

[20] = test system: C. albicans ATCC MYA-1237(R) (strain F); experiment: MIC, broth microdilution (CLSI M27-A3), yeast strain F; type: cell-based; settings: Candida albicans; MIC-0, strain F, 35 °C 48 h
Protocol: as §2

[21] = test system: Candida parapsilosis clinical isolate CP1; experiment: MIC, broth microdilution (CLSI M27-A3), CP1; type: cell-based; settings: Lodderomyces parapsilosis; MIC-0, CP1, 35 °C 48 h
Protocol: as §2

[22] = test system: Aspergillus terreus ATCC MYA-3633 (strain M); experiment: MIC, filamentous fungi (CLSI M38-A2), strain M; type: cell-based; settings: MIC-0, strain M, 35 °C 72 h
Protocol: as §3

[23] = test system: C. albicans ATCC 10231 (strain A); experiment: MIC, broth microdilution (CLSI M27-A3), yeast strain A; type: cell-based, Candida albicans; settings: Candida albicans, ATCC10231; MIC-0, strain A, 35 °C 48 h
Protocol: as §2

[24] = test system: C. albicans ATCC 90819(R) (strain D); experiment: MIC, broth microdilution (CLSI M27-A3), yeast strain D; type: cell-based; settings: Candida albicans, ATCC90819; MIC-0, strain D, 35 °C 48 h
Protocol: as §2

[25] = test system: Candida parapsilosis ATCC 22019 (strain J); experiment: MIC, broth microdilution (CLSI M27-A3), yeast strain J; type: cell-based; settings: Lodderomyces parapsilosis, ATCC22019; MIC-0, strain J, 35 °C 48 h
Protocol: as §2

SMILES: C[C@@H]1[C@H](O)[C@@H](C)/C=C/C=C/C=C/C=C/C=C/C=C/C=C/[C@H](O[C@@H]2O[C@H](C)[C@@H](O)[C@H](N)[C@@H]2O)C[C@@H]2O[C@](O)(C[C@@H](O)C[C@@H](O)[C@H](O)CC[C@@H](O)C[C@@H](O)CC(=O)O[C@H]1C)C[C@H](O)[C@H]2C(=O)O [AmB, amphotericin B, reference compound]
hemolysis at 1 h, 0.48 μg/mL ([1]; 0.48 μg/mL): 0%
hemolysis at 1 h, 0.975 μg/mL ([1]; 0.975 μg/mL): 0%
hemolysis at 1 h, 1.95 μg/mL ([1]; 1.95 μg/mL): 1.7 ± 0.1%
hemolysis at 1 h, 3.9 μg/mL ([1]; 3.9 μg/mL): 3.4 ± 0.6%
hemolysis at 1 h, 7.8 μg/mL ([1]; 7.8 μg/mL): 3.7 ± 0.7%
hemolysis at 1 h, 15.6 μg/mL ([1]; 15.6 μg/mL): 31.9 ± 5.7%
hemolysis at 1 h, 31.3 μg/mL ([1]; 31.3 μg/mL): 80.2 ± 8.5%
% hemolysis [2]: 90.3 ± 5.7%

MIC [3]: 0.12 µg/mL (≈ 0.11 µM)
MIC [4]: 15.6 µg/mL (≈ 14.3 µM)
MIC values [5]: low to no activity
MIC [6]: 0.48 µg/mL (≈ 0.439 µM)
MIC [7]: > 31.3 µg/mL
MIC [8]: 0.06 µg/mL (≈ 0.0549 µM)
MIC [9]: > 31.3 µg/mL
MIC [10]: 0.06 µg/mL (≈ 0.0549 µM)
MIC [11]: 0.24 µg/mL (≈ 0.22 µM)
MIC [12]: 15.6 µg/mL (≈ 14.3 µM)
MIC [13]: 31.3 µg/mL (≈ 28.6 µM)
MIC [14]: 0.48 µg/mL (≈ 0.439 µM)
MIC [15]: 0.24 µg/mL (≈ 0.22 µM)
MIC [16]: 0.48 µg/mL (≈ 0.439 µM)
MIC [17]: 1.95 µg/mL (≈ 1.78 µM)
MIC [18]: 0.48 µg/mL (≈ 0.439 µM)
MIC [19]: 0.975 µg/mL (≈ 0.892 µM)
MIC [20]: 0.24 µg/mL (≈ 0.22 µM)
MIC [21]: 0.48 µg/mL (≈ 0.439 µM)
MIC [22]: > 31.3 µg/mL
MIC [23]: 0.975 µg/mL (≈ 0.892 µM)
MIC [24]: 0.12 µg/mL (≈ 0.11 µM)
MIC [25]: 1.95 µg/mL (≈ 1.78 µM)
SMILES: CC[C@H](C)C[C@H](C)CCCCCCCCC(=O)N[C@H]1C[C@@H](O)[C@@H](NCCN)NC(=O)[C@@H]2[C@@H](O)CCN2C(=O)[C@H]([C@H](O)CCN)NC(=O)[C@H]([C@H](O)[C@@H](O)c2ccc(O)cc2)NC(=O)[C@@H]2C[C@@H](O)CN2C(=O)[C@H]([C@@H](C)O)NC1=O [CAS, caspofungin, reference compound]
